Consider four molecules from patent publication US5571842A, “Perfluoroalkyl-substituted, benzoylguanidines, a process for their preparation, their use as a medicament or diagnostic agent, and a medicament containing them” (priority 1994, dated 1996).

One may read the IC50 as the concentration at which inhibition is half-maximal.

One data set has as its target T1, Na^+ /H^+ exchanger (Oryctolagus cuniculus, UniProt P23791).
T1 construct: endogenous in cells; host or cells: rabbit erythrocytes (whole blood of cholesterol-fed White New Zealand rabbits)
The data set can be described thus: Inhibition of the Na+/H+ exchanger of rabbit erythrocytes (amiloride-sensitive sodium influx, flame photometry). The settings on record: 37° C., pH 7.4, hyperosmolar salt-sucrose medium. The data set is classed as cell-based, rabbit (White New Zealand). An excerpt:
White New Zealand rabbits (Ivanovas) received a standard diet containing 2% cholesterol for six weeks, in order to activate Na^+ /H^+ exchange and thus to enable the Na^+ influx into the erythrocytes via […] exchange to be determined by flame photometry. The blood was taken from the auricular arteries and made incoagulable by means of 25 IU of potassium heparin. A portion of each sample was used for duplicate determination of the hematocrit by centrifugation. Aliquots of in each case 100 μl were used to measure the initial Na^+ content of the erythrocytes.
In order to determine the amiloride-sensitive sodium influx, 100 μl of each blood sample were incubated at 37° C. and at pH 7.4 in each case in 5 ml of a hyperosmolar salt-sucrose medium (in mmol/l: 140 NaCl, 3 KCl, 150 sucrose, 0.1 ouabain, 20 trishydroxymethylaminomethane). The erythrocytes were then washed three times with ice-cold MgCl2 -ouabain solution (in mmol/l: 112 MgCl2, 0.1 ouabain) and hemolyzed in 2.0 ml of distilled water. The intracellular sodium content was determined by flame photometry.
The net Na^+ influx was calculated from the difference between the initial sodium values and the sodium content of the erythrocytes after incubation. The amiloride-inhibitable sodium influx was given by the difference of the sodium content of the erythrocytes after incubation with and without 3×10^-4 mol/l of amiloride. […]

Another data set deals with rat hearts. The settings on record: isolated rat hearts, cited from earlier work.
The subject of another data set is cardiac arrhythmias. The settings on record: cited from earlier work.

T1 sequence (P23791 whole entry): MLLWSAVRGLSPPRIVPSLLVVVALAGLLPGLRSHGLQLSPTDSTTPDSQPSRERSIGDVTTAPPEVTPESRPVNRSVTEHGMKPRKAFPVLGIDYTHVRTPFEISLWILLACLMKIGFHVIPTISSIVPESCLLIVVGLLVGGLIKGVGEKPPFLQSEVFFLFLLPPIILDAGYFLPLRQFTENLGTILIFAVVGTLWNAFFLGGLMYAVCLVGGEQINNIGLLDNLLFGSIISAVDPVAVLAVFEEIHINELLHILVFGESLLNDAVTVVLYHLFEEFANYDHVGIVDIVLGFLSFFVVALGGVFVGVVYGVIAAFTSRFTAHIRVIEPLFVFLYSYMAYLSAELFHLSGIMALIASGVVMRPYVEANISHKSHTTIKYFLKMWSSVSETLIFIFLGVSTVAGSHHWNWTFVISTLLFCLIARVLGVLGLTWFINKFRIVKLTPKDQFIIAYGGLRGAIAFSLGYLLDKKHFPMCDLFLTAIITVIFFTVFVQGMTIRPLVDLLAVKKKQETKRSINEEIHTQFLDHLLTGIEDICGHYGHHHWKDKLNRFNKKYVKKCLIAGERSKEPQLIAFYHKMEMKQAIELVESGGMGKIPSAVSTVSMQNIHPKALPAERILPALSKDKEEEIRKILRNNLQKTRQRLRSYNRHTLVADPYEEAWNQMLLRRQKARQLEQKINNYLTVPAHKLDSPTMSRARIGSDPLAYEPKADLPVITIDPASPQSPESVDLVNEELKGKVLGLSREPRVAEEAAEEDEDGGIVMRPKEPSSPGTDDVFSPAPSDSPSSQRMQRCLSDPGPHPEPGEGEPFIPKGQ

`NC(N)=NC(=O)c1ccc(Oc2ccc(F)cc2)c(S(=O)(=O)C(F)(F)F)c1` [Example 1, 4-(4-Fluorophenoxy)-3-trifluoromethylsulfonylbenzoylguanidine]: the IC50 on Na^+ /H^+ exchanger came to 200 nM.
The same measure, in the same setting: the value for `CC(C)c1ccc(C(=O)N=C(N)N)cc1S(=O)(=O)C(F)(F)F` [Example 2, 4-Isopropyl-3-trifluoromethylsulfonylbenzoylguanidine] was 70 nM.
In the case of `NC(N)=NC(=O)c1nc(Cl)c(N)nc1N` [amiloride], the “suppression of artificially induced ventricular fibrillation” value in the data set with rat hearts (Eur. Heart J. 9 (suppl.1): 167 (1988)) was “completely suppressed”. In the data set with cardiac arrhythmias (Circulation 79, 1257-63 (1989)), the antiarrhythmic effect entry is “only weakly pronounced”. In the data set with cardiac arrhythmias (in vivo), the “side-effects accompanying antiarrhythmic effect” value is “hypotensive and saluretic effects”.
Take `CCN(c1nc(N)c(C(=O)N=C(N)N)nc1Cl)C(C)C` [ethylisopropylamiloride]: in the data set with rat hearts (compared with amiloride), the “potency relative to amiloride in ventricular fibrillation model” value is listed as “even more potent than amiloride”.
